Active and inactive are the calls of the source. No rule for the calls is given here.
System: Staphylococcus aureus
Assay: Inhibition of FabB/FabF in methicillin-resistant Staphylococcus aureus assessed as antibacterial activity at 5 ug/disk after 18 hrs by agar disk diffusion method

SMILES: COc1ccc(C#Cc2cccc(SC3=C[C@]45C[C@H]6C[C@H](O[C@@]6(C)C4)[C@H]5[C@](C)(CCC(=O)Nc4c(O)ccc(C(=O)O)c4O)C3=O)c2)cc1
- antibacterial activity (disk diffusion, qualitative): Active

SMILES: COc1ccccc1-c1ccc(SC2=C[C@]34C[C@H]5C[C@H](O[C@@]5(C)C3)[C@H]4[C@](C)(CCC(=O)Nc3c(O)ccc(C(=O)O)c3O)C2=O)cc1
- antibacterial activity (disk diffusion, qualitative): Active

SMILES: C[C@]12C[C@@]34C=C(Sc5cccc(C#Cc6ccc(Cl)cc6)c5)C(=O)[C@@](C)(CCC(=O)Nc5c(O)ccc(C(=O)O)c5O)[C@@H]3[C@H](C[C@@H]1C4)O2
- antibacterial activity (disk diffusion, qualitative): Active

SMILES: C[C@]12C[C@@]34C=C(Sc5ccc(-c6ccco6)cc5)C(=O)[C@@](C)(CCC(=O)Nc5c(O)ccc(C(=O)O)c5O)[C@@H]3[C@H](C[C@@H]1C4)O2
- antibacterial activity (disk diffusion, qualitative): Active

SMILES: COc1ccccc1-c1cccc(SC2=C[C@]34C[C@H]5C[C@H](O[C@@]5(C)C3)[C@H]4[C@](C)(CCC(=O)Nc3c(O)ccc(C(=O)O)c3O)C2=O)c1
- antibacterial activity (disk diffusion, qualitative): Active

SMILES: C[C@]12C[C@@]34C=C(Sc5cccc(C#Cc6cccc(N)c6)c5)C(=O)[C@@](C)(CCC(=O)Nc5c(O)ccc(C(=O)O)c5O)[C@@H]3[C@H](C[C@@H]1C4)O2
- antibacterial activity (disk diffusion, qualitative): Active

SMILES: CCCCc1ccc(C#Cc2cccc(SC3=C[C@]45C[C@H]6C[C@H](O[C@@]6(C)C4)[C@H]5[C@](C)(CCC(=O)Nc4c(O)ccc(C(=O)O)c4O)C3=O)c2)cc1
- antibacterial activity (disk diffusion, qualitative): Active

SMILES: C[C@]12C[C@@]34C=C(Sc5cccc(Cl)c5)C(=O)[C@@](C)(CCC(=O)Nc5c(O)ccc(C(=O)O)c5O)[C@@H]3[C@H](C[C@@H]1C4)O2
- antibacterial activity (disk diffusion, qualitative): Active

SMILES: C[C@]12C[C@@]34C=C(Sc5cccc(Br)c5)C(=O)[C@@](C)(CCC(=O)Nc5c(O)ccc(C(=O)O)c5O)[C@@H]3[C@H](C[C@@H]1C4)O2
- antibacterial activity (disk diffusion, qualitative): Active

SMILES: C[C@]12C[C@@]34C=C(Sc5cccc(-c6ccc(C=O)cc6)c5)C(=O)[C@@](C)(CCC(=O)Nc5c(O)ccc(C(=O)O)c5O)[C@@H]3[C@H](C[C@@H]1C4)O2
- antibacterial activity (disk diffusion, qualitative): Active

SMILES: CC(C)(C)OC(=O)/C=C/c1cccc(SC2=C[C@]34C[C@H]5C[C@H](O[C@@]5(C)C3)[C@H]4[C@](C)(CCC(=O)Nc3c(O)ccc(C(=O)O)c3O)C2=O)c1
- antibacterial activity (disk diffusion, qualitative): Active

SMILES: C[C@]12C[C@@]34C=C(Sc5cccc(C#CCN)c5)C(=O)[C@@](C)(CCC(=O)Nc5c(O)ccc(C(=O)O)c5O)[C@@H]3[C@H](C[C@@H]1C4)O2
- antibacterial activity (disk diffusion, qualitative): Active

SMILES: C[C@]12C[C@@]34C=C(Sc5cccc(-c6ccco6)c5)C(=O)[C@@](C)(CCC(=O)Nc5c(O)ccc(C(=O)O)c5O)[C@@H]3[C@H](C[C@@H]1C4)O2
- antibacterial activity (disk diffusion, qualitative): Active

SMILES: C[C@]12C[C@@]34C=C(Sc5ccc(/C=C/C(=O)O)cc5)C(=O)[C@@](C)(CCC(=O)Nc5c(O)ccc(C(=O)O)c5O)[C@@H]3[C@H](C[C@@H]1C4)O2
- antibacterial activity (disk diffusion, qualitative): Active

SMILES: C[C@]12C[C@@]34C=C(Sc5ccc(Cl)cc5)C(=O)[C@@](C)(CCC(=O)Nc5c(O)ccc(C(=O)O)c5O)[C@@H]3[C@H](C[C@@H]1C4)O2
- antibacterial activity (disk diffusion, qualitative): Active

SMILES: CNC(=O)/C=C/c1ccc(SC2=C[C@]34C[C@H]5C[C@H](O[C@@]5(C)C3)[C@H]4[C@](C)(CCC(=O)Nc3c(O)ccc(C(=O)O)c3O)C2=O)cc1
- antibacterial activity (disk diffusion, qualitative): Active

SMILES: COC(=O)/C=C/c1cccc(SC2=C[C@]34C[C@H]5C[C@H](O[C@@]5(C)C3)[C@H]4[C@](C)(CCC(=O)Nc3c(O)ccc(C(=O)O)c3O)C2=O)c1
- antibacterial activity (disk diffusion, qualitative): Active

SMILES: C[C@]12C[C@@]34C=C(Sc5cccc(C#Cc6ccc(F)cc6)c5)C(=O)[C@@](C)(CCC(=O)Nc5c(O)ccc(C(=O)O)c5O)[C@@H]3[C@H](C[C@@H]1C4)O2
- antibacterial activity (disk diffusion, qualitative): Active

SMILES: CCSC1=C[C@]23C[C@H]4C[C@H](O[C@@]4(C)C2)[C@H]3[C@](C)(CCC(=O)Nc2c(O)ccc(C(=O)O)c2O)C1=O
- antibacterial activity (disk diffusion, qualitative): Active

SMILES: CCCCc1ccc(SC2=C[C@]34C[C@H]5C[C@H](O[C@@]5(C)C3)[C@H]4[C@](C)(CCC(=O)Nc3c(O)ccc(C(=O)O)c3O)C2=O)cc1
- antibacterial activity (disk diffusion, qualitative): Active

SMILES: C[C@]12C[C@@]34C=C(Sc5cc(Cl)cc(Cl)c5)C(=O)[C@@](C)(CCC(=O)Nc5c(O)ccc(C(=O)O)c5O)[C@@H]3[C@H](C[C@@H]1C4)O2
- antibacterial activity (disk diffusion, qualitative): Active

SMILES: C[C@]12C[C@@]34C=C(Sc5ccc(C#Cc6ccc(C(=O)O)cc6)cc5)C(=O)[C@@](C)(CCC(=O)Nc5c(O)ccc(C(=O)O)c5O)[C@@H]3[C@H](C[C@@H]1C4)O2
- antibacterial activity (disk diffusion, qualitative): Active

SMILES: C[C@]12C[C@@]34C=C(Sc5ccc(C#CC6(O)CCCCC6)cc5)C(=O)[C@@](C)(CCC(=O)Nc5c(O)ccc(C(=O)O)c5O)[C@@H]3[C@H](C[C@@H]1C4)O2
- antibacterial activity (disk diffusion, qualitative): Active

SMILES: CCCCC#Cc1cccc(SC2=C[C@]34C[C@H]5C[C@H](O[C@@]5(C)C3)[C@H]4[C@](C)(CCC(=O)Nc3c(O)ccc(C(=O)O)c3O)C2=O)c1
- antibacterial activity (disk diffusion, qualitative): Active

SMILES: C[C@]12C[C@@]34C=C(Sc5ccccc5C(=O)O)C(=O)[C@@](C)(CCC(=O)Nc5c(O)ccc(C(=O)O)c5O)[C@@H]3[C@H](C[C@@H]1C4)O2
- antibacterial activity (disk diffusion, qualitative): Active

SMILES: C[C@]12C[C@@]34C=C(Sc5ccc(C#Cc6ccccc6)cc5)C(=O)[C@@](C)(CCC(=O)Nc5c(O)ccc(C(=O)O)c5O)[C@@H]3[C@H](C[C@@H]1C4)O2
- antibacterial activity (disk diffusion, qualitative): Active

SMILES: C[C@]12C[C@@]34C=C(Sc5ccc(-c6cccc(O)c6)cc5)C(=O)[C@@](C)(CCC(=O)Nc5c(O)ccc(C(=O)O)c5O)[C@@H]3[C@H](C[C@@H]1C4)O2
- antibacterial activity (disk diffusion, qualitative): Active

SMILES: C[C@]12C[C@@]34C=C(Sc5ccc(C#CC6CC6)cc5)C(=O)[C@@](C)(CCC(=O)Nc5c(O)ccc(C(=O)O)c5O)[C@@H]3[C@H](C[C@@H]1C4)O2
- antibacterial activity (disk diffusion, qualitative): Active

SMILES: COC(=O)/C=C/c1ccc(SC2=C[C@]34C[C@H]5C[C@H](O[C@@]5(C)C3)[C@H]4[C@](C)(CCC(=O)Nc3c(O)ccc(C(=O)O)c3O)C2=O)cc1
- antibacterial activity (disk diffusion, qualitative): Active

SMILES: CCCCC#Cc1ccc(SC2=C[C@]34C[C@H]5C[C@H](O[C@@]5(C)C3)[C@H]4[C@](C)(CCC(=O)Nc3c(O)ccc(C(=O)O)c3O)C2=O)cc1
- antibacterial activity (disk diffusion, qualitative): Active

SMILES: C[C@]12C[C@@]34C=C(Sc5ccc(-c6ccccc6F)cc5)C(=O)[C@@](C)(CCC(=O)Nc5c(O)ccc(C(=O)O)c5O)[C@@H]3[C@H](C[C@@H]1C4)O2
- antibacterial activity (disk diffusion, qualitative): Active

SMILES: CC(C)(C)C#Cc1cccc(SC2=C[C@]34C[C@H]5C[C@H](O[C@@]5(C)C3)[C@H]4[C@](C)(CCC(=O)Nc3c(O)ccc(C(=O)O)c3O)C2=O)c1
- antibacterial activity (disk diffusion, qualitative): Active

SMILES: CNC(=O)/C=C/c1cccc(SC2=C[C@]34C[C@H]5C[C@H](O[C@@]5(C)C3)[C@H]4[C@](C)(CCC(=O)Nc3c(O)ccc(C(=O)O)c3O)C2=O)c1
- antibacterial activity (disk diffusion, qualitative): Active

SMILES: CC(C)(C)SC1=C[C@]23C[C@H]4C[C@H](O[C@@]4(C)C2)[C@H]3[C@](C)(CCC(=O)Nc2c(O)ccc(C(=O)O)c2O)C1=O
- antibacterial activity (disk diffusion, qualitative): Active

SMILES: C[C@]12C[C@@]34C=C(SCc5ccco5)C(=O)[C@@](C)(CCC(=O)Nc5c(O)ccc(C(=O)O)c5O)[C@@H]3[C@H](C[C@@H]1C4)O2
- antibacterial activity (disk diffusion, qualitative): Active

SMILES: CCCCCC#Cc1cccc(SC2=C[C@]34C[C@H]5C[C@H](O[C@@]5(C)C3)[C@H]4[C@](C)(CCC(=O)Nc3c(O)ccc(C(=O)O)c3O)C2=O)c1
- antibacterial activity (disk diffusion, qualitative): Active

SMILES: C=CCSC1=C[C@]23C[C@H]4C[C@H](O[C@@]4(C)C2)[C@H]3[C@](C)(CCC(=O)Nc2c(O)ccc(C(=O)O)c2O)C1=O
- antibacterial activity (disk diffusion, qualitative): Active

SMILES: Cc1occc1SC1=C[C@]23C[C@H]4C[C@H](O[C@@]4(C)C2)[C@H]3[C@](C)(CCC(=O)Nc2c(O)ccc(C(=O)O)c2O)C1=O
- antibacterial activity (disk diffusion, qualitative): Active

SMILES: C[C@]12C[C@@]34C=C(Sc5cccc(-c6cccc(O)c6)c5)C(=O)[C@@](C)(CCC(=O)Nc5c(O)ccc(C(=O)O)c5O)[C@@H]3[C@H](C[C@@H]1C4)O2
- antibacterial activity (disk diffusion, qualitative): Active

SMILES: Cc1ccc(C#Cc2cccc(SC3=C[C@]45C[C@H]6C[C@H](O[C@@]6(C)C4)[C@H]5[C@](C)(CCC(=O)Nc4c(O)ccc(C(=O)O)c4O)C3=O)c2)cc1
- antibacterial activity (disk diffusion, qualitative): Active

SMILES: C[C@]12C[C@@]34C=C(Sc5ccc(C#CCN)cc5)C(=O)[C@@](C)(CCC(=O)Nc5c(O)ccc(C(=O)O)c5O)[C@@H]3[C@H](C[C@@H]1C4)O2
- antibacterial activity (disk diffusion, qualitative): Active

SMILES: C[C@]12C[C@@]34C=C(Sc5ccc(-c6ccc(C=O)cc6)cc5)C(=O)[C@@](C)(CCC(=O)Nc5c(O)ccc(C(=O)O)c5O)[C@@H]3[C@H](C[C@@H]1C4)O2
- antibacterial activity (disk diffusion, qualitative): Active

SMILES: C[C@]12C[C@@]34C=C(Sc5c(F)c(F)c(F)c(F)c5F)C(=O)[C@@](C)(CCC(=O)Nc5c(O)ccc(C(=O)O)c5O)[C@@H]3[C@H](C[C@@H]1C4)O2
- antibacterial activity (disk diffusion, qualitative): Active

SMILES: C[C@]12C[C@@]34C=C(Sc5ccc(N)cc5)C(=O)[C@@](C)(CCC(=O)Nc5c(O)ccc(C(=O)O)c5O)[C@@H]3[C@H](C[C@@H]1C4)O2
- antibacterial activity (disk diffusion, qualitative): Active

SMILES: C[C@]12C[C@@]34C=C(Sc5ccc(-c6ccccc6)cc5)C(=O)[C@@](C)(CCC(=O)Nc5c(O)ccc(C(=O)O)c5O)[C@@H]3[C@H](C[C@@H]1C4)O2
- antibacterial activity (disk diffusion, qualitative): Active

SMILES: C[C@]12C[C@@]34C=C(Sc5cccc(C#CC6CC6)c5)C(=O)[C@@](C)(CCC(=O)Nc5c(O)ccc(C(=O)O)c5O)[C@@H]3[C@H](C[C@@H]1C4)O2
- antibacterial activity (disk diffusion, qualitative): Active

SMILES: CCN(CC)CC#Cc1cccc(SC2=C[C@]34C[C@H]5C[C@H](O[C@@]5(C)C3)[C@H]4[C@](C)(CCC(=O)Nc3c(O)ccc(C(=O)O)c3O)C2=O)c1
- antibacterial activity (disk diffusion, qualitative): Active

SMILES: C[C@]12C[C@@]34C=C(Sc5ccc(-c6cccnc6)cc5)C(=O)[C@@](C)(CCC(=O)Nc5c(O)ccc(C(=O)O)c5O)[C@@H]3[C@H](C[C@@H]1C4)O2
- antibacterial activity (disk diffusion, qualitative): Active

SMILES: Cc1ccc(SC2=C[C@]34C[C@H]5C[C@H](O[C@@]5(C)C3)[C@H]4[C@](C)(CCC(=O)Nc3c(O)ccc(C(=O)O)c3O)C2=O)c(C)c1
- antibacterial activity (disk diffusion, qualitative): Active
